The IC50 is the concentration at which inhibition is half-maximal.

This experiment addresses cGMP-specific 3',5'-cyclic phosphodiesterase, PDE5 (Sus scrofa). The experiment is described as follows: Inhibitory activity against cGMP-phosphodiesterase from porcine aorta.
In the case of `COc1ccc2ncnc(NCc3ccc4c(c3)OCO4)c2c1OC` [Benzo[1,3]dioxol-5-ylmethyl-(5,6-dimethoxy-quinazolin-4-yl)-amine], the half-maximal inhibitory concentration (IC50) worked out at 730 nM.

Take `CCOC(=O)c1ccc2ncnc(NCc3ccc4c(c3)OCO4)c2c1` [4-[(Benzo[1,3]dioxol-5-ylmethyl)-amino]-quinazoline-6-carboxylic acid ethyl ester]: the IC50 stood at 620 nM. To `NC(=O)c1ccc2ncnc(NCc3ccc4c(c3)OCO4)c2c1` [4-[(Benzo[1,3]dioxol-5-ylmethyl)-amino]-quinazoline-6-carboxylic acid amide] belongs 770 nM. With `CS(=O)(=O)c1ccc2ncnc(NCc3ccc4c(c3)OCO4)c2c1` [Benzo[1,3]dioxol-5-ylmethyl-(6-methanesulfonyl-quinazolin-4-yl)-amine] the figure was 810 nM; with `O=C(c1ccc2ncnc(NCc3ccc4c(c3)OCO4)c2c1)N1CCOCC1` [{4-[(Benzo[1,3]dioxol-5-ylmethyl)-amino]-quinazolin-6-yl}-morpholin-4-yl-methanone], 2700 nM; with `COc1cc2ncnc(NCc3ccc4c(c3)OCO4)c2cc1SC` [Benzo[1,3]dioxol-5-ylmethyl-(7-methoxy-6-methylsulfanyl-quinazolin-4-yl)-amine], 350 nM. On to `CCOc1ccc2ncnc(NCc3ccc4c(c3)OCO4)c2c1` [Benzo[1,3]dioxol-5-ylmethyl-(6-ethoxy-quinazolin-4-yl)-amine], for which inhibition was half-maximal at 380 nM (IC50).

As to `COc1ccc2ncnc(NCc3ccc4c(c3)OCO4)c2c1` [Benzo[1,3]dioxol-5-ylmethyl-(6-methoxy-quinazolin-4-yl)-amine], the IC50 amounted to 230 nM. In turn, `COc1cc(OC)c2ncnc(NCc3ccc4c(c3)OCO4)c2c1` [Benzo[1,3]dioxol-5-ylmethyl-(6,8-dimethoxy-quinazolin-4-yl)-amine] had an IC50 of 810 nM. Compared with the last compound, the IC50 is about 3.5-fold higher. In the case of `O=c1c2ccc(Cl)cc2ncn1Cc1ccc2c(c1)OCO2` [3-Benzo[1,3]dioxol-5-ylmethyl-7-chloro-3H-quinazolin-4-one], the IC50 amounted to 8700 nM. As to `CN(C)C(=O)c1ccc2ncnc(NCc3ccc4c(c3)OCO4)c2c1` [4-[(Benzo[1,3]dioxol-5-ylmethyl)-amino]-quinazoline-6-carboxylic acid dimethylamide], inhibition was half-maximal at 2300 nM (IC50). `Cc1ccc2ncnc(NCc3ccc4c(c3)OCO4)c2c1` [Benzo[1,3]dioxol-5-ylmethyl-(6-methyl-quinazolin-4-yl)-amine] returned an IC50 of 100 nM. Consider `OCc1ccc2ncnc(NCc3ccc4c(c3)OCO4)c2c1` [{4-[(Benzo[1,3]dioxol-5-ylmethyl)-amino]-quinazolin-6-yl}-methanol], for which the IC50 was determined as 930 nM. This IC50 lies about 9.3-fold higher than the previous one.

In the case of `CSc1ccc2ncn(Cc3ccc4c(c3)OCO4)c(=O)c2c1` [3-Benzo[1,3]dioxol-5-ylmethyl-6-methylsulfanyl-3H-quinazolin-4-one], the IC50 worked out at 2300 nM.

(Values after BindingDB's records for doi:10.1021/jm00039a024 (Eisai, 1994).)
